Key:
Test in all cases: relative viability (nuclei count vs DMSO), 5 days (fraction); higher = more cells survive
NCI-H727 = system: NCI-H727
In short: (§1)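 Relative viability divides the nuclei count in treated wells by that in vehicle wells. Lung cancer cell lines were seeded in 1536-well plates, dosed by pin tool the next day, and fixed and stained after 5 days in one step with final 0.05% Triton X-100, 1% formaldehyde and 1 ug/ml Hoechst. Dosing was a single drug or a fixed anchor-drug dose plus five library-drug doses (not always all listed) in √10 steps, and values are medians of duplicate plates imaged at 4×.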

PC-14 = system: PC-14
In short: as §1

NCI-H1355 = system: NCI-H1355
In short: as §1

NCI-H1563 = system: NCI-H1563
In short: as §1

LXF-289 = system: LXF-289
In short: as §1

NCI-H2170 = system: NCI-H2170
In short: as §1

NCI-H661 = system: NCI-H661
In short: as §1

NCI-H596 = system: NCI-H596
In short: as §1

NCI-H650 = system: NCI-H650
In short: as §1

RERF-LC-KJ = system: RERF-LC-KJ
In short: as §1

NCI-H1651 = system: NCI-H1651
In short: as §1

NCI-H1755 = system: NCI-H1755
In short: as §1

NCI-H460 = system: NCI-H460
In short: as §1

SK-MES-1 = system: SK-MES-1
In short: as §1

NCI-H2347 = system: NCI-H2347
In short: as §1

NCI-H3122 = system: NCI-H3122
In short: as §1

NCI-H520 = system: NCI-H520
In short: as §1

NCI-H1915 = system: NCI-H1915
In short: as §1

NCI-H1792 = system: NCI-H1792
In short: as §1

NCI-H322M = system: NCI-H322M
In short: as §1

NC(=O)Nc1cc(-c2cccc(F)c2)sc1C(=O)N[C@H]1CCCNC1 [AZD7762] + CS(=O)(=O)CCNCc1ccc(-c2ccc3ncnc(Nc4ccc(OCc5cccc(F)c5)c(Cl)c4)c3c2)o1 [Lapatinib] (partner 2 µM)
relative viability (NCI-H727; first compound 0.01 µM): 0.891 | relative viability (NCI-H727; first compound 0.03162 µM): 0.985 | relative viability (NCI-H727; first compound 0.1 µM): 0.578 | relative viability (NCI-H727; first compound 0.3162 µM): 0.36 | relative viability (NCI-H727; first compound 1 µM): 0.271 | relative viability (PC-14; first compound 0.01 µM): 0.345 | relative viability (PC-14; first compound 0.03162 µM): 0.305 | relative viability (PC-14; first compound 0.1 µM): 0.348 | relative viability (PC-14; first compound 0.3162 µM): 0.256 | relative viability (PC-14; first compound 1 µM): 0.299 | relative viability (NCI-H1355; first compound 0.01 µM): 1 | relative viability (NCI-H1355; first compound 0.03162 µM): 0.993 | relative viability (NCI-H1355; first compound 0.1 µM): 1.01 | relative viability (NCI-H1355; first compound 0.3162 µM): 1.02 | relative viability (NCI-H1355; first compound 1 µM): 0.719 | relative viability (NCI-H1563; first compound 0.01 µM): 0.868 | relative viability (NCI-H1563; first compound 0.03162 µM): 1.04 | relative viability (NCI-H1563; first compound 0.1 µM): 1.04 | relative viability (NCI-H1563; first compound 0.3162 µM): 0.982 | relative viability (NCI-H1563; first compound 1 µM): 0.904 | relative viability (LXF-289; first compound 0.01 µM): 0.906 | relative viability (LXF-289; first compound 0.03162 µM): 0.909 | relative viability (LXF-289; first compound 0.1 µM): 0.973 | relative viability (LXF-289; first compound 0.3162 µM): 0.912 | relative viability (LXF-289; first compound 1 µM): 0.983 | relative viability (NCI-H2170; first compound 0.01 µM): 0.289 | relative viability (NCI-H2170; first compound 0.03162 µM): 0.256 | relative viability (NCI-H2170; first compound 0.1 µM): 0.26 | relative viability (NCI-H2170; first compound 0.3162 µM): 0.263 | relative viability (NCI-H2170; first compound 1 µM): 0.257 | relative viability (NCI-H661; first compound 0.01 µM): 0.6 | relative viability (NCI-H661; first compound 0.03162 µM): 0.546 | relative viability (NCI-H661; first compound 0.1 µM): 0.512 | relative viability (NCI-H661; first compound 0.3162 µM): 0.405 | relative viability (NCI-H661; first compound 1 µM): 0.28 | relative viability (NCI-H596; first compound 0.01 µM): 1.11 | relative viability (NCI-H596; first compound 0.03162 µM): 1.01 | relative viability (NCI-H596; first compound 0.1 µM): 1.13 | relative viability (NCI-H596; first compound 0.3162 µM): 1.11 | relative viability (NCI-H596; first compound 1 µM): 0.891 | relative viability (NCI-H650; first compound 0.01 µM): 1.04 | relative viability (NCI-H650; first compound 0.03162 µM): 1.11 | relative viability (NCI-H650; first compound 0.1 µM): 0.813 | relative viability (NCI-H650; first compound 0.3162 µM): 0.747 | relative viability (NCI-H650; first compound 1 µM): 0.827 | relative viability (RERF-LC-KJ; first compound 0.01 µM): 0.865 | relative viability (RERF-LC-KJ; first compound 0.03162 µM): 0.894 | relative viability (RERF-LC-KJ; first compound 0.1 µM): 0.849 | relative viability (RERF-LC-KJ; first compound 0.3162 µM): 0.819 | relative viability (RERF-LC-KJ; first compound 1 µM): 0.956 | relative viability (NCI-H1651; first compound 0.01 µM): 0.93 | relative viability (NCI-H1651; first compound 0.03162 µM): 0.832 | relative viability (NCI-H1651; first compound 0.1 µM): 0.909 | relative viability (NCI-H1651; first compound 0.3162 µM): 0.607 | relative viability (NCI-H1651; first compound 1 µM): 0.195 | relative viability (NCI-H1755; first compound 0.01 µM): 1.07 | relative viability (NCI-H1755; first compound 0.03162 µM): 1.1 | relative viability (NCI-H1755; first compound 0.1 µM): 1.17 | relative viability (NCI-H1755; first compound 0.3162 µM): 0.924 | relative viability (NCI-H1755; first compound 1 µM): 0.364 | relative viability (NCI-H460; first compound 0.01 µM): 1.07 | relative viability (NCI-H460; first compound 0.03162 µM): 0.972 | relative viability (NCI-H460; first compound 0.1 µM): 0.824 | relative viability (NCI-H460; first compound 0.3162 µM): 0.467 | relative viability (NCI-H460; first compound 1 µM): 0.0597 | relative viability (SK-MES-1; first compound 0.01 µM): 0.434 | relative viability (SK-MES-1; first compound 0.03162 µM): 0.396 | relative viability (SK-MES-1; first compound 0.1 µM): 0.457 | relative viability (SK-MES-1; first compound 0.3162 µM): 0.468 | relative viability (SK-MES-1; first compound 1 µM): 0.469 | relative viability (NCI-H2347; first compound 0.01 µM): 1.11 | relative viability (NCI-H2347; first compound 0.03162 µM): 0.986 | relative viability (NCI-H2347; first compound 0.1 µM): 1.07 | relative viability (NCI-H2347; first compound 0.3162 µM): 0.934 | relative viability (NCI-H2347; first compound 1 µM): 1.17 | relative viability (NCI-H3122; first compound 0.01 µM): 0.978 | relative viability (NCI-H3122; first compound 0.03162 µM): 1.06 | relative viability (NCI-H3122; first compound 0.1 µM): 1.03 | relative viability (NCI-H3122; first compound 0.3162 µM): 0.907 | relative viability (NCI-H3122; first compound 1 µM): 1.09 | relative viability (NCI-H520; first compound 0.01 µM): 0.825 | relative viability (NCI-H520; first compound 0.03162 µM): 0.864 | relative viability (NCI-H520; first compound 0.1 µM): 0.735 | relative viability (NCI-H520; first compound 0.3162 µM): 0.304 | relative viability (NCI-H520; first compound 1 µM): 0.254 | relative viability (NCI-H1915; first compound 0.01 µM): 1 | relative viability (NCI-H1915; first compound 0.03162 µM): 1 | relative viability (NCI-H1915; first compound 0.1 µM): 0.943 | relative viability (NCI-H1915; first compound 0.3162 µM): 0.909 | relative viability (NCI-H1915; first compound 1 µM): 0.933 | relative viability (NCI-H1792; first compound 0.01 µM): 0.965 | relative viability (NCI-H1792; first compound 0.03162 µM): 0.911 | relative viability (NCI-H1792; first compound 0.1 µM): 0.925 | relative viability (NCI-H1792; first compound 0.3162 µM): 0.945 | relative viability (NCI-H1792; first compound 1 µM): 1.05 | relative viability (NCI-H322M; first compound 0.01 µM): 0.627 | relative viability (NCI-H322M; first compound 0.03162 µM): 0.675 | relative viability (NCI-H322M; first compound 0.1 µM): 0.532 | relative viability (NCI-H322M; first compound 0.3162 µM): 0.535 | relative viability (NCI-H322M; first compound 1 µM): 0.456

— the supplement of paper PMC10307832
